Results reported in ChEMBL document CHEMBL1150580, “Microsphaerones A and B, two novel gamma-pyrone derivatives from the sponge-derived fungus Microsphaeropsis sp” (J Nat Prod, 2002).
The source made the active and inactive calls. The rule behind the calls is not given here.

Assays:
Spodoptera littoralis = assay: Insecticidal activity against Spodoptera littoralis larvae; format: functional, organism-based
Artemia salina = assay: Toxicity to Artemia salina; format: organism-based; conditions: in vivo

C[C@@H](CC(=O)NC(=O)c1coc(/C=C/C=C/CCCCCCC(=O)O)cc1=O)C(=O)O [MICROSPHAERONE A]
Activity (Spodoptera littoralis): inactive | Activity (Artemia salina): Non-toxic

NC(=O)c1coc(/C=C/C=C/CCCCCCC(=O)O)cc1=O [MICROSPHAERONE B]
Activity (Spodoptera littoralis): inactive | Activity (Artemia salina): Non-toxic
